Experimental data taken from PMC7075522 (ACS infectious diseases, 2016).

Tests used:
[1] = test system: DENV in BHK-21 and NIH3T3 cells; conditions: cited from earlier work
[2] = test system: sera of 24 SARS-positive patients; type: binding, human

Row | Substance | ADE of DENV [1] | Immunoreactivity with sera [2]
1 | CPFLKQNEPEDIDCW | blocked this ADE in a dose-dependent manner | 
2 | LYQDVN [S597–602] |  | immunoreactive with the tested sera of 24 SARS-positive patients
